Data from paper PMC11747586, “Synthesis and Investigation of Peptide–Drug Conjugates Comprising Camptothecin and a Human Protein‐Derived Cell‐Penetrating Peptide” (Chemical Biology & Drug Design, 2025).
Positions of bridges follow the written chain, without caps; N, C: chain ends. Residues, ends and D or L forms follow the SMILES beside them.

How the values were obtained:
HT144 cells = test: Compound internalization/association with HT144 cells (TOF-MS of cell extracts); assay type: cell-based; settings: 4 μM, 1 h
Experimental: FIGURE 4 (A) Membrane permeability and cellular uptake of PDCs, scaffold peptides, and CPT. Compounds were added to PAMPA wells (4 μM) and incubated for 4 h. Supernatant from apical and basolateral sides of the membrane were collected and analyzed using LC–MS. The amount in the combined soluble fractions was compared to the starting amount to determine % recovery, and the apparent permeability (Papp) was calculated as before (Sevin et al. [2013]). Data is expressed as mean ± SD from a single experiment with three technical replicates. (B) Internalization/cell membrane association of PDCs 12–14 and PDIP with HT144 cells. […] The relative amount of internalized peptide or PDC was determined by integrating area under the curve (AUC) for the [M + 6H]^6+ m/z peak (for the intact mass) using time of flight–mass spectrometry (see Figure S2). […] Data is expressed as mean ± SD from a single experiment with three technical replicates for each treatment and control and was analyzed with ANOVA (Tukey multiple comparisons; **p < 0.01, *p < 0.05). […] Data is expressed as mean ± SD from a single experiment with three technical replicates for each treatment and was analyzed with ANOVA (Fisher multiple paired comparisons; **p < 0.01, *p < 0.05). […]
The area under the curve (AUC) for the [M+6H]6+ m/z peak for each compound was determined using Sciex […]

cells = test: cells
Experimental: Cell death was measured using resazurin, with 0.1% (v/v) Triton X‐100 as a control for 100% cell death. Data points are expressed as mean ± SD for at least two biological replicates. Dose response curves were fitted using [inhibitor] versus response with variable slope, Graphpad Prism v10. […] RBC lysis was determined by measuring released hemoglobin, with 0.1% (v/v) Triton X‐100 as a control for 100% cell lysis. Melittin was included as a membranolytic control. Data points are expressed as mean ± SD for two technical replicates. Dose response curves were fitted using [inhibitor] versus response with variable slope, Graphpad Prism v10. […] CC50 values are expressed as mean (SEM).
Cell death was measured using resazurin, with 0.1% (v/v) Triton X-100 as a control for 100% cell death. Data points are expressed as mean ± SD for at least two biological replicates. CC50 values are expressed as mean (SEM). Note: CPT-dipeptide-PDIP was not included in this study. c[A]PDIP is a desulfurized variant of cPDIP 2 (see Table S1) to prevent the presence of free thiol during assays. […]
HaCaT cells were grown in DMEM medium and HT144 cells were grown in RPMI medium supplemented with 2 mM L-glutamine and 10 mM sodium pyruvate. Media were supplemented with 10% (v/v) fetal bovine serum, 100 units/mL of penicillin and […] of streptomycin. Flasks of cultured cells were maintained in a humidified incubator (37 °C, 5% CO2) and passaged every 2–3 days to maintain cultures between 20–90% confluence. Cell line identity was verified by comparing […]
STR profiles of the cell lines against database entries from the DSMZ-German collection of microorganisms and cell cultures, GmBH https://celldive.dsmz.de/str/browse.
Toxicity to the HT144 and HaCaT cell lines was tested following peptide treatment by measuring the metabolism of resazurin into fluorescent resorufin. The assays were performed with 5000 cells/well (96-well plate) in serum free media. Cells were incubated with serially diluted peptides, PDCs or […]

## CC[C@H](C)[C@@H]1NC(=O)[C@H](CCCCN)NC(=O)[C@H](CCCCN)NC(=O)[C@H](Cc2ccc(O)cc2)NC(=O)[C@H](CC(C)C)NC(=O)[C@@H]2CCCN2C(=O)CNC(=O)CNC(=O)[C@@H](NC(=O)CN)CSSC[C@@H](C(=O)N[C@@H](CCC(=O)O)C(=O)N[C@@H](CO)C(N)=O)NC(=O)[C@H](CC(C)C)NC(=O)[C@H](CCCCN)NC(=O)[C@H](CCCCN)NC(=O)[C@H]([C@@H](C)CC)NC(=O)[C@H]([C@@H](C)CC)NC(=O)[C@H](CCCCN)NC(=O)[C@H](CCCCN)NC(=O)[C@H](Cc2ccc(O)cc2)NC(=O)[C@H](CC(C)C)NC(=O)[C@@H]2CCCN2C(=O)[C@H](C)NC(=O)CNC(=O)CNC(=O)[C@H](CO)NC(=O)CNC(=O)CNC(=O)[C@H](CO)NC(=O)[C@H](CCC(=O)O)NC(=O)[C@H](CC(C)C)NC(=O)[C@H](CC(C)C)NC(=O)[C@H](CCCCN)NC(=O)[C@H](CCCCN)NC(=O)[C@H]([C@@H](C)CC)NC1=O [PDIP, reference compound] (H-GCGGPLYKKIIKKLLESGGSGGAPLYKKIIKKLCES-NH2; disulfide 2-34; N-terminus assumed)
HT144 cells
  recovered intact conjugate/peptide (percentage of internalized compound): 9%
cells
  CC50: 4.83 µM
